Test results reported in publication PMC9636034 (Current Research in Food Science, 2022).

Biological target: α-glucosidase from yeast (Saccharomyces cerevisiae, UniProt P53341)
Test: Inhibition assay against α-glucosidase from yeast
Assay type: biochemical

Sequence of α-glucosidase from yeast (P53341 whole entry): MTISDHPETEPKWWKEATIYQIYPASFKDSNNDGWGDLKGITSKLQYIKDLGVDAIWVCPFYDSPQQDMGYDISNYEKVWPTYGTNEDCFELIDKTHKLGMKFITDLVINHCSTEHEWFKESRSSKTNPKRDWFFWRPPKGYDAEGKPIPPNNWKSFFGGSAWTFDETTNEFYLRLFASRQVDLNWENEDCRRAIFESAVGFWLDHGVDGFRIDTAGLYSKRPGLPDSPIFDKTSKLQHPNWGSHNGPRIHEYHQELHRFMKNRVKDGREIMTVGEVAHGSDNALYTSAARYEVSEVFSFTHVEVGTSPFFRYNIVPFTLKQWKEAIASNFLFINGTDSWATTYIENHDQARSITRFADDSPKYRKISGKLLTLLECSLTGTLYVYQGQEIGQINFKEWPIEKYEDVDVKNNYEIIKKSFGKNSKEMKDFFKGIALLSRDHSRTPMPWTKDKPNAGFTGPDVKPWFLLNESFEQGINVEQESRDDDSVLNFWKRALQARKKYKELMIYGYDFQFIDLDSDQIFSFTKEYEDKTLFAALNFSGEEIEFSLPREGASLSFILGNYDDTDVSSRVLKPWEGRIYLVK

For `CC(=O)[C@@H]1COC(=O)[C@H]1C` [Compound 2, (3S, 4S)-4-acetyl-3-methyldihydrofuran-2 (3H)-one], the IC50 was 193 ± 13.1 µM.
Compound `CC1=C(C)C(C)(O)OC1=O` (centres unmarked) [Compound 3, 2-methyl-2-hydroxy-3,4-dimethyl-5-oxo-2,5-dihydrofuran] has an IC50 greater than 250 µM.
